Data as given in US20250195491A1 (AEVIS BIO, INC., priority 2022, published 2025).

Assays:
SALL4 = SALL4 degradation by immunoblotting in Tera-1 cells; format: cell-based, human; details: 0.000128-10 μM, 4 hours, immunoblot, FIG. 4
Description: It has been reported that a cereblon (CRBN)-binding therapeutic such as a thalidomide-based compound can cause severe congenital abnormalities such as forelimb shortening or brachydactyly, which are closely associated with the decomposition of SALL4.
To this end, the Tera-1 cell line (HTB-105), which is a human embryonic carcinoma cell line, was purchased from the American Type Culture Collection (ATCC, Manassas, VA, USA) and used, and then cultured using a DMEM medium (Corning, MD, USA) supplemented with 10% fetal bovine serum (Corning, MD, USA), 100 U/mL of penicillin (Corning, MD, USA), and 100 100 μg/mL streptomycin (Corning, MD, USA) at 37° C. in a 5% CO2 incubator.
The cells were disrupted by adding a RIPA buffer containing a protease inhibitor cocktail (Thermo Fisher Scientific), and centrifuged at 14,000 rpm for 15 minutes at 4° C. to obtain a cell extract. Equal amounts of the cell extract were loaded, and proteins were separated by SDS-PAGE and then transferred to a PVDF membrane. The protein-transferred membrane was blocked using skim milk, incubated with a primary antibody for 3 hours at room temperature, and then incubated with an HRP-conjugated secondary antibody for 1 hour at room temperature. The resulting product was washed with TBS-T three times between steps. […]

BV-2 cells = assay: Nitrite content in culture medium of LPS-stimulated BV-2 cells (Griess); format: cell-based, mouse; details: BV-2, 30, 10, or 3.33 μM, LPS 1 μg/mL 24 hours, FIG. 6B
Protocol: To further confirm the oxidative stress suppression effect, the content of nitrite released due to an inflammatory response and the expression levels of iNOS, which is an enzyme that produces nitric oxide, and COX-2, which is cyclooxygenase-2, were determined in mouse microglial cells (BV-2, ATCC, Manassas, VA, USA).
(§1) To determine the content of nitrite and the protein expression levels of iNOS and COX-2, BV-2 was seeded in a 12-well plate (Corning, MD, USA) at 1.5×10^5 cells/well, and cultured using a DMEM medium (Corning, MD, USA) containing 10% fetal bovine serum (Corning, MD, USA) and 100 U/mL of penicillin/streptomycin (Corning, MD, USA) at 37° C. in a 5% CO2 incubator for one day for stabilization. […] 1 μg/mL of LPS (Sigma, USA) was added to all experimental groups excluding the non-inflammation-induced group and allowed to react at 37° C. in a 5% CO2 incubator for 24 hours.
The cell culture solution was collected to measure the content of nitrite, and centrifuged at 3,000 rpm for 5 minutes to obtain a supernatant. The concentration of nitrite in the cell culture was measured using a microplate reader (NEO2MALPHAB Synergy Neo-2, BioTek, CA, US) according to the manual of the Griess Reagent System (#G2930, Promega, WI, USA).

iNOS and COX-2 = iNOS and COX-2 mRNA (RT-PCR) in LPS-stimulated BV-2 cells; format: cell-based, mouse; details: BV-2, 30, 10, or 3.33 μM, LPS 1 μg/mL 6 hours, FIG. 6D
Protocol: as §1, with “Finally, to” for “To”, “mRNA” for “content of nitrite and the protein”, “6-well” for “12-well”, “5×10^5” for “1.5×10^5”, “6” for “24”
The drug-treated BV-2 underwent RNA prep according to the kit manual using an RNA prep kit (Monarch Total RNA Miniprep kit, NEB, UK), and the concentration was measured using a nanophotometer (NP80, Implen, Germany). […]
The expression level of each oxidative stress-associated gene in the synthesized cDNA was analyzed and compared using Real-Time PCR (StepOne™Bioscience, USA) equipment. […] The Cr value for the gene of each sample obtained through real-time PCR was normalized by the value of the internal control gene (GAPDH) of each sample, the expression level was estimated inversely by 2ΔΔCT calculation, and the resulting value of each group was quantified and expressed as a percentage relative to the LPS-only treatment group.

SMILES: Nc1cccc2c1C(=S)N(C1CCC(=O)NC1=O)C2=O (stereo not drawn) [3-MP, 3-thiopomalidomide]
- decomposition of SALL4 (SALL4): less decomposition of SALL4 than pomalidomide
- amount of residual nitrite released by LPS (BV-2 cells): effectively reduced the amount of the residual nitrite released by LPS, compared to pomalidomide
- mRNA expression of oxidative stress-associated genes (iNOS and COX-2) (iNOS and COX-2): can effectively inhibit the mRNA expression of an oxidative stress-associated gene
